Measurements reported in patent US9439876B2, “Method of treating microbial infections” (priority 2014, dated 2016).
“Also recorded” adds a separate entry of the source.

What was measured:
Format in all cases: cell-based
[1] = tested on: Candida albicans wild type strain SN250; assay: Screen for inhibition of Candida albicans lawn formation (halo) on solid YPD plates; conditions: for inhibition of C. albicans growth (halo formation) on YPD plates: 5 μl of 10 mM drug on fungal lawn, 25° C. and 37° C.
Protocol: (§1) C. albicans was plated on solid YPD and serum plates, and 5 μl of each 10 mM drug was placed on top of the fungal lawn. The effect of exposure to each of the compounds from the library was assayed for its ability to inhibit C. albicans growth, as well as ability to form a halo within the fungal lawn. […] (FIG. 1A).
(§2) High-throughput Screening Assay: The sensitivity of C. albicans against compounds was assessed by a high-throughput chemical screen. 200 μl of C. albicans overnight culture were spread onto petri dishes containing either YPD or fetal bovine serum. 5 μl of each drug was placed directly on the agar surface using a multichannel pipette and slight contact of the tip to the agar made to leave an impression to facilitate later analysis. Compounds that were replicated were done on petri dishes, following the same protocol in at least five independent experiments. For the replication studies, only a single drug was placed per plate. The plates were incubated at either 25° C. or 37° C.

[2] = tested on: Candida albicans wild type strain SN250; assay: Screen for inhibition of Candida albicans lawn formation (halo) on solid serum (FBS agar) plates; conditions: 5 μl of 10 mM drug on fungal lawn, 25° C. and 37° C.
Protocol: as §1
Media and Growth Conditions: C. albicans strains were cultured with 5 ml of YPD (1% yeast extract, 2% peptone, 2% dextrose, pH 6) medium at 30° C. overnight. Bacterial cells were cultured in LB (Luria-Bertani) medium consisting of 5 g Bacto-Tryptone, 2.5 g Bacto-Yeast Extract, 5 g NaCl and 7.5 g of 2% agar if preparing solid plates. The centrifuge tubes were incubated at 37° C. and left shaking overnight at 150 rpm. Fetal bovine serum was incorporated into agar. Fetal bovine serum was preheated in a water bath set at 65° C. […] The agar solution for the serum mixture consisted of 16 g agar, which was then brought up to 300 ml with nanopure water. The agar solution was then autoclaved at 120° C. for 45 minutes. The agar and serum mixtures were then amalgamated while in their isothermal states.
as §2

[3] = tested on: Candida albicans knock-out mutants; assay: Genotypic mutant screening against Octodrine (three knockout libraries, 908 mutant strains); conditions: 5 μl of 10 mM drug on YPD plates, 30° C. overnight
Protocol: In order to identify C. albicans proteins and signaling pathways that mediate the lethality of Octodrine, three C. albicans knockout libraries were screened for any alterations in sensitivity to 10 mM Octodrine—collectively consisting of 908 mutant strains each strain lacking one of the virulence genes. These libraries consisted of 647 mutant strains lacking one of the essential virulence genes (Noble, S M et al., 2010, Nat Genet 42:590-598, the entire content of which is herein incorporated by reference); 96 cell wall protein mutants (Norice, C T et al., 2007, Eukaryot Cell 6:2046-2055, the entire content of which is herein incorporated by reference); and 165 transcription factors mutants (Nobile, C J et al., 2005, Curr Biol 15:1150-1155, the entire content of which is herein incorporated by reference).
Genotypic Mutant Screening Against Octodrine: Each C. albicans knockout strain was cultured in individual wells of a 96 well plate in 100 μl of YPD media overnight at 30° C. 5 μl of each Candida knock-out overnight culture was spotted onto a YPD solid plate using a multichannel pipette. The cells were then left to absorb into the YPD plates for 1 hour at 25° C. Using a multichannel pipette, 5 μl of Octodrine 10 mM was spotted directly on top of the C. albicans cells. The plates were then placed in an incubator set at 30° C. and left overnight. […]

[4] = tested on: Escherichia coli strain C600; assay: Halo formation in bacterial lawn, gram-negative bacteria; conditions: 5 μl of neat form (3 mg of undiluted)
Text: (§3) In order to test if Octodrine kills microorganisms by targeting their non-protein cellular components, Escherichia coli and Bacillus cereus, gram-negative and gram-positive bacteria respectively, were exposed to Octodrine.
(§4) Candida albicans and Bacterial Strains: The Candida albicans wild type strain SN250 was used for the high-throughput screening experiments. The bacterial strain consisted of Bacillus cereus strain 10987 and Escherichia coli strain C600. The genotypic screen for mutant sensitivity to Octodrine was tested with three C. albicans libraries that were previously created as disclosed in Noble, 2010, supra; Rauceo, J M et al., 2008, Mol Biol Cell 19:2741-2751; and Homann, O R et al., 2009, PLoS Genet 5:e1000783, the entire contents of all of which are herein incorporated by reference.
(§5) Media and Growth Conditions: C. albicans strains were cultured with 5 ml of YPD (1% yeast extract, 2% peptone, 2% dextrose, pH 6) medium at 30° C. overnight. Bacterial cells were cultured in LB (Luria-Bertani) medium consisting of 5 g Bacto-Tryptone, 2.5 g Bacto-Yeast Extract, 5 g NaCl and 7.5 g of 2% agar if preparing solid plates. The centrifuge tubes were incubated at 37° C. and left shaking overnight at 150 rpm. Fetal bovine serum was incorporated into agar. Fetal bovine serum was preheated in a water bath set at 65° C. […]

[5] = tested on: Bacillus cereus strain 10987; assay: Halo formation in bacterial lawn, gram-positive bacteria; conditions: 5 μl of neat form (3 mg of undiluted)
Text: as §3, §4, §5

[6] = tested on: RAW264.7 mouse macrophage cells; assay: Mammalian cell survival assay (MTT); conditions: RAW264.7, 1 μl of 10 mM drug in 100 μl media with two-fold dilutions, 24 hours
Protocol: Mammalian cell culture, drug treatment, and survival assay: RAW264.7 mouse macrophage cells were maintained in DMEM (Dulbecco's Modified Eagle Medium, Sigma-Aldrich) supplemented with 10% FBS (fetal bovine serum, Bioexpress) and 100 μg/mL penicillin and 100 μg/mL streptomycin. RAW264.7 cells (10,000 per well) were seeded in 96-well plates (100 μL/well) 24 hours before the assay. During the assay, 1 μl of 10 mM drug was added to 100 μl of cell-containing media. Two-fold serial dilutions of the media were performed. Cells were treated with drugs for 24 hours, and determination of cell viability by 3-(4,5-dimethylthiazol-2-yl)-2,5-diphenyltetrazolium bromide (MTT) assay was performed as described in Lu et al., 2004, Proc Natl Acad Sci USA 101:17246-17251, the entire content of which is herein incorporated by reference.
Each data point shown in the figure for MTT assays represents the average of results from at least two wells in each of at least two separate experiments. Cell viability is shown as the percentage of survivors obtained relative to untreated cells (100%).

[7] = tested on: Candida albicans wild type strain SN250; assay: Screen for inhibition of Candida albicans lawn formation (halo) on solid serum (FBS agar) plates; conditions: 5 μl of undiluted (neat) drug, approximately 3 mg, middle of serum-grown lawn

COc1c(C)c2c(c(O)c1C/C=C(\C)CCC(=O)O)C(=O)OC2 [Mycophenolic acid]
inhibition of C. albicans growth (halo formation) on YPD plates [1]: very strong inhibition | inhibition of C. albicans growth (halo formation) on serum plates [2]: failed to inhibit

OC(Cn1cncn1)(Cn1cncn1)c1ccc(F)cc1F [Fluconazole]
inhibition of C. albicans growth (halo formation) on YPD plates [1]: strong inhibition | inhibition of C. albicans growth (halo formation) on YPD plates ([1]; listed as fluconazole): effective inhibitor; also recorded: prominent halos | effectiveness at forming halos at 37° C. compared to 25° C. ([1]; 5 μl of 10 mM drug, 37° C. versus 25° C.): diminished effectiveness | inhibition of C. albicans growth (halo formation) on serum plates [2]: weak inhibition

O=[N+]([O-])c1ccc(O)c2ncccc12 [Nitroxoline]
inhibition of C. albicans growth (halo formation) on serum plates [2]: weaker inhibition

CC(C)n1c(/C=C/C(O)CC(O)CC(=O)O)c(-c2ccc(F)cc2)c2ccccc21 (stereo not drawn) [Fluvastatin]
inhibition of C. albicans growth (halo formation) on serum plates [2]: failed to inhibit

Cc1ccc2c(Cl)cc(Cl)c(O)c2n1 [Chlorquinaldol]
inhibition of C. albicans growth (halo formation) on serum plates [2]: strongest inhibition

O=[N+]([O-])c1ccc(/C=N/O)o1 [Nifuroxime]
inhibition of C. albicans growth (halo formation) on serum plates [2]: weaker inhibition

[O-][n+]1ccccc1[S-].[O-][n+]1ccccc1[S-].[Zn+2] [Pyrithione Zinc]
inhibition of C. albicans growth (halo formation) on YPD plates [1]: strong inhibition | inhibition of C. albicans growth (halo formation) on serum plates [2]: weak inhibition

CCCCCCCC(=O)O [Octanoic acid]
inhibition of C. albicans growth (halo formation) on serum plates [2]: weaker inhibition

Clc1ccccc1C(c1ccccc1)(c1ccccc1)n1ccnc1 [Clotrimazole]
inhibition of C. albicans growth (halo formation) on YPD plates [1]: strong inhibition | inhibition of C. albicans growth (halo formation) on serum plates [2]: weak inhibition

Antimycin A
inhibition of C. albicans growth (halo formation) on YPD plates [1]: strong inhibition | inhibition of C. albicans growth (halo formation) on serum plates [2]: weak inhibition

CC(C)CCCC(C)N (stereo not drawn) [Octodrine, 6-methylheptan-2-amine]
inhibition of C. albicans growth (halo formation) on YPD plates [1]: moderate-to-weak anti-Candida activity and mild | inhibition of C. albicans growth (halo formation) on serum plates [2]: strong fungal growth inhibition; also recorded: prominent ability to kill; also recorded: most prominent drug that killed C. albicans in serum; also recorded: best Candida growth inhibition | sensitivity of C. albicans knockout mutants relative to wild type [3]: as sensitive as their wild type strains; also recorded: no C. albicans mutants (FIG. 3) showed a decrease in sensitivity | halo formation in E. coli lawn [4]: formed prominent halos; also recorded: capable of killing | halo formation in B. cereus lawn [5]: formed prominent halos; also recorded: capable of killing | survival of mouse macrophages (cell viability relative to untreated cells) [6]: the same as to the DMSO alone; also recorded: did not affect the sensitivity | elimination of serum-grown Candida lawn by undiluted drug [7]: sufficient to eliminate most of the whole fungal lawn

O=C1C2CC=CCC2C(=O)N1SC(Cl)(Cl)Cl (stereo not drawn) [Captan]
inhibition of C. albicans growth (halo formation) on YPD plates [1]: strong inhibition

Clc1ccc(COC(Cn2ccnc2)c2ccc(Cl)cc2Cl)c(Cl)c1 (stereo not drawn) [Miconazole]
inhibition of C. albicans growth (halo formation) on YPD plates [1]: strong inhibition | inhibition of C. albicans growth (halo formation) on serum plates [2]: weak inhibition
